Literature values, collected in patent US20130177646A1, “Solid Nicotine-Comprising Dosage Form with Reduced Organoleptic Disturbance” (priority 2012, published 2013).

Details: smoking a cigarette

For `CN1CCCC1c1cccnc1` (stereo not shown) [nicotine], the “time for nicotine to reach the brain after inhalation” value is given as “around ten”.
